Converted amounts (≈) assume the structure as drawn. Blank lines part the entries; values can stand above or below the compound they belong to.
Experiments:
Experiment in all cases: ≥ marks a high value that may be exact or a test limit, other limits are often not marked, values filed in µg/mL are converted to µM
[1] = tested on: Lactiplantibacillus plantarum 8014
[2] = tested on: Candida albicans CGMCC 2.2086
[3] = tested on: Lacticaseibacillus rhamnosus 7469
[4] = tested on: Candida parapsilosis CGMCC 2.3989
[5] = tested on: Staphylococcus aureus ATCC 29213
[6] = tested on: Staphylococcus aureus ATCC 25923
[7] = tested on: Candida tropicalis CGMCC 2.1975
[8] = tested on: Staphylococcus epidermidis ATCC 12228
[9] = tested on: Escherichia coli ATCC 25922
[10] = tested on: Pseudomonas aeruginosa ATCC 27853
[11] = tested on: Acinetobacter baumannii ATCC 19606
[12] = tested on: Staphylococcus aureus JE2
[13] = tested on: Staphylococcus aureus ATCC 43300
[14] = tested on: Klebsiella pneumoniae ATCC 700603
Escherichia coli K-12 = tested on: Escherichia coli K-12
[15] = tested on: Candida albicans ATCC 90028
[16] = tested on: Cryptococcus neoformans var. grubii H99
[17] = tested on: Pseudomonas aeruginosa NBRC 13275
[18] = tested on: Staphylococcus aureus NBRC 13276
[19] = tested on: Escherichia coli DH5alpha
[20] = tested on: Batrachochytrium dendrobatidis
[21] = tested on: Escherichia coli ATCC 43827
[22] = tested on: Escherichia coli ATCC 11775
[23] = tested on: Escherichia coli ATCC 35218
Escherichia coli ESBL 4 = tested on: Escherichia coli ESBL 4
Escherichia coli ESBL = tested on: Escherichia coli ESBL
[24] = tested on: Enterococcus faecium CCT 5079
[25] = tested on: Bacillus thuringiensis ATCC 10792
[26] = tested on: Streptococcus mutans AU159
[27] = tested on: Salmonella enterica subsp. enterica serovar Choleraesuis ATCC 10708
[28] = tested on: Bacillus cereus ATCC 11778
[29] = tested on: Staphylococcus aureus CCT 2580
[30] = tested on: Pseudomonas aeruginosa ATCC 15422
[31] = tested on: Pseudomonas aeruginosa ATCC 13388
[32] = tested on: Enterococcus hirae ATCC 10541
[33] = tested on: Micrococcus luteus ATCC 4698
[34] = tested on: Streptococcus pneumoniae ATCC 11733
[35] = tested on: Escherichia coli CCT 1457
[36] = tested on: Salmonella enterica subsp. enterica serovar Typhimurium ATCC 14028
[37] = tested on: Staphylococcus aureus CCT 6538

MIC [2]: 2 µM (≈ 5.36 µg/mL)
MIC [3]: ≥ 64 µM
MIC [4]: 2 µM (≈ 5.36 µg/mL)
MIC [5]: > 64 µM
MIC [6]: > 64 µM
MIC [7]: 1 µM (≈ 2.68 µg/mL)
MIC [8]: > 64 µM
SMILES: CC[C@H](C)[C@H](N)C(=O)N[C@@H](Cc1cnc[nH]1)C(=O)N[C@@H](Cc1cnc[nH]1)C(=O)N[C@H](C(=O)N[C@@H](Cc1cnc[nH]1)C(=O)N[C@@H](Cc1cnc[nH]1)C(=O)N[C@H](C(=O)N[C@H](C(=O)N[C@@H](Cc1cnc[nH]1)C(=O)N[C@@H](Cc1cnc[nH]1)C(=O)N[C@H](C(=O)N[C@@H](Cc1cnc[nH]1)C(=O)N[C@@H](Cc1cnc[nH]1)C(=O)N[C@H](C(=O)N[C@H](C(=O)N[C@@H](Cc1cnc[nH]1)C(=O)N[C@@H](Cc1cnc[nH]1)C(=O)N[C@H](C(=O)N[C@@H](Cc1cnc[nH]1)C(=O)N[C@@H](Cc1cnc[nH]1)C(=O)N[C@H](C(N)=O)[C@@H](C)CC)[C@@H](C)CC)[C@@H](C)CC)[C@@H](C)CC)[C@@H](C)CC)[C@@H](C)CC)[C@@H](C)CC)[C@@H](C)CC [IHHIHHIIHHIHHIIHHIHHI]
MIC [1]: ≥ 64 µM

MIC [9]: 2.32 µM (≈ 4 µg/mL)
MIC [10]: > 18.6 µM
MIC [11]: 1.16 µM (≈ 2 µg/mL)
MIC [12]: 9.28 µM (≈ 16 µg/mL)
MIC [13]: 2.32 µM (≈ 4 µg/mL)
MIC [14]: 4.64 µM (≈ 8 µg/mL)
MIC (Escherichia coli K-12): 18.6 µM (≈ 32 µg/mL)
MIC [15]: 18.6 µM (≈ 32 µg/mL)
MIC [16]: 1.16 µM (≈ 2 µg/mL)
SMILES: CC[C@H](C)[C@H](NC(=O)[C@@H](NC(=O)[C@H](CO)NC(=O)[C@H](C)NC(=O)[C@@H](NC(=O)[C@H](CCCCN)NC(=O)[C@H](CCCN=C(N)N)NC(=O)[C@@H](NC(=O)[C@@H](NC(=O)[C@H](CCCN=C(N)N)NC(=O)[C@H](Cc1c[nH]c2ccccc12)NC(=O)[C@H](CC(C)C)NC(=O)CN)C(C)C)[C@@H](C)CC)C(C)C)C(C)C)C(=O)NCC(=O)NCC(=O)N[C@@H](CC(C)C)C(=O)O [GLWRVIRKVASVIGGL]

MIC [17]: ≥ 200 µM
MIC [18]: ≥ 400 µM
MIC [19]: ≥ 200 µM
SMILES: CC(=O)N[C@@H](C)C(=O)N[C@@H](CCCCN)C(=O)N[C@@H](CCCCN)C(=O)N[C@@H](Cc1ccccc1)C(=O)NCC(=O)N[C@@H](CCCCN)C(=O)N[C@@H](C)C(=O)N[C@@H](Cc1ccccc1)C(=O)N[C@H](C(N)=O)C(C)C [AKKFGKAFV]

MIC [20]: ≥ 100 µM
SMILES: CC[C@H](C)[C@H](NC(=O)[C@H](CC(C)C)NC(=O)[C@@H]1CCCN1C(=O)[C@H](CC(C)C)NC(=O)[C@H](CCCCN)NC(=O)[C@H](CCCCN)NC(=O)[C@H](Cc1ccccc1)NC(=O)[C@H](CC(C)C)NC(=O)[C@H](CCCCN)NC(=O)[C@H](Cc1c[nH]c2ccccc12)NC(=O)[C@@H](N)CCCCN)C(=O)NCC(=O)N[C@@H](CCCN=C(N)N)C(=O)N[C@H](C(=O)N[C@@H](CC(C)C)C(N)=O)C(C)C [KWKLFKKLPLIGRVL]

MIC [9]: 25 µM (≈ 53.6 µg/mL)
MIC [21]: 3 µM (≈ 6.44 µg/mL)
MIC [10]: 100 µM (≈ 215 µg/mL)
MIC [22]: ≥ 100 µM
MIC [23]: 6 µM (≈ 12.9 µg/mL)
MIC (Escherichia coli ESBL 4): ≥ 100 µM
MIC (Escherichia coli ESBL): 12.5 µM (≈ 26.8 µg/mL)
SMILES: CC[C@H](C)[C@H](NC(=O)[C@H](Cc1ccc(O)cc1)NC(=O)[C@H](CCC(N)=O)NC(=O)[C@H](CC(C)C)NC(=O)[C@H](C)NC(=O)[C@H](CCCCN)NC(=O)[C@H](CCCCN)NC(=O)[C@H](CCSC)NC(=O)[C@H](CCCCN)NC(=O)[C@H](CCCCN)NC(=O)[C@H](CCCCN)NC(=O)[C@@H](N)CCCN=C(N)N)C(=O)N[C@@H](CCCCN)C(=O)N[C@@H](CC(C)C)C(=O)N[C@@H](CC(C)C)C(=O)N[C@@H](CCCCN)C(=O)N[C@@H](CCC(=O)O)C(N)=O [RKKKMKKALQYIKLLKE]

MIC [9]: > 19.3 µM
MIC [10]: > 19.3 µM
MIC [11]: 9.67 µM (≈ 16 µg/mL)
MIC [12]: 4.83 µM (≈ 8 µg/mL)
MIC [13]: 2.42 µM (≈ 4 µg/mL)
MIC [14]: > 19.3 µM
MIC (Escherichia coli K-12): 9.67 µM (≈ 16 µg/mL)
MIC [15]: 19.3 µM (≈ 32 µg/mL)
MIC [16]: 4.83 µM (≈ 8 µg/mL)
SMILES: CC[C@H](C)[C@H](NC(=O)[C@@H](NC(=O)[C@H](CO)NC(=O)[C@H](C)NC(=O)[C@@H](NC(=O)[C@H](CCCCN)NC(=O)[C@H](CCCCN)NC(=O)[C@@H](NC(=O)[C@@H](NC(=O)[C@H](CC(=O)O)NC(=O)[C@H](Cc1c[nH]c2ccccc12)NC(=O)[C@H](CC(C)C)NC(=O)CN)C(C)C)[C@@H](C)CC)C(C)C)C(C)C)C(=O)NCC(=O)NCC(=O)N[C@@H](CC(C)C)C(=O)O [GLWDVIKKVASVIGGL]

MIC [24]: 4.87 µM (≈ 8 µg/mL)
MIC [25]: ≥ 76.1 µM
MIC [9]: 18.9 µM (≈ 31 µg/mL)
MIC [26]: 2.44 µM (≈ 4 µg/mL)
MIC [28]: ≥ 152 µM
MIC [29]: 4.87 µM (≈ 8 µg/mL)
MIC [22]: 18.9 µM (≈ 31 µg/mL)
MIC [30]: ≥ 76.1 µM
MIC [31]: ≥ 152 µM
MIC [32]: 18.9 µM (≈ 31 µg/mL)
MIC [15]: ≥ 38.1 µM
MIC [33]: 2.44 µM (≈ 4 µg/mL)
MIC [34]: 1.22 µM (≈ 2 µg/mL)
MIC [6]: 1.22 µM (≈ 2 µg/mL)
MIC [35]: 4.87 µM (≈ 8 µg/mL)
MIC [36]: 18.9 µM (≈ 31 µg/mL)
MIC [8]: 2.44 µM (≈ 4 µg/mL)
MIC [37]: 18.9 µM (≈ 31 µg/mL)
SMILES: CC[C@H](C)[C@H](N)C(=O)N[C@@H](CC(N)=O)C(=O)N[C@@H](Cc1c[nH]c2ccccc12)C(=O)N[C@@H](CC(C)C)C(=O)N[C@@H](CCCCN)C(=O)N[C@H](C(=O)N[C@@H](CCCCN)C(=O)N[C@@H](CCCCN)C(=O)N[C@@H](CCCCN)C(=O)N[C@H](C(=O)N[C@@H](C)C(=O)NCC(=O)N[C@@H](CCSC)C(=O)N[C@@H](CC(C)C)C(N)=O)C(C)C)[C@@H](C)CC [INWLKIKKKVAGML]
MIC [27]: ≥ 304 µM

MIC [20]: ≥ 200 µM
SMILES: CC(C)C[C@H](NC(=O)CN)C(=O)N[C@@H](CC(C)C)C(=O)N[C@@H](C)C(=O)N[C@@H](CO)C(=O)N[C@@H](CC(C)C)C(=O)NCC(=O)N[C@@H](CCCCN)C(=O)N[C@H](C(=O)N[C@@H](Cc1ccccc1)C(=O)NCC(=O)NCC(=O)N[C@@H](Cc1ccc(O)cc1)C(=O)N[C@@H](CC(C)C)C(=O)N[C@@H](C)C(=O)N[C@@H](CCC(=O)O)C(=O)N[C@@H](CCCCN)C(=O)N[C@@H](CC(C)C)C(=O)N[C@@H](CCCCN)C(=O)N1CCC[C@H]1C(=O)N[C@@H](CCCCN)C(=O)O)C(C)C [GLLASLGKVFGGYLAEKLKPK]

Source: DBAASP
